For this test, the target named is MAPK14 (human) (UniProt Q16539). The test can be described thus: Inhibition of MAPK14 Kinase Activity.
Chain of MAPK14 (human) (Q16539 whole entry, looked up): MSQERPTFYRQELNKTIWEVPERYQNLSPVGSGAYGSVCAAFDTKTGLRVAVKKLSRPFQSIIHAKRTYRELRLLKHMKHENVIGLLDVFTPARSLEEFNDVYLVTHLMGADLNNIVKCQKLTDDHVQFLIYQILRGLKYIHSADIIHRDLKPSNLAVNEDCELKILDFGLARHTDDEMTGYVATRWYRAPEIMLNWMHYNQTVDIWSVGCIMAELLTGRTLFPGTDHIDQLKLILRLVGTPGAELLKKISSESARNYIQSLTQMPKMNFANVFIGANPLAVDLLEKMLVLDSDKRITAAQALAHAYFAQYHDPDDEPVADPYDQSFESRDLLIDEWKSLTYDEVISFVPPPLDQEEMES
Take `COc1ccc(-n2c(=O)ccc3c2ccn3Cc2ccccc2)cc1`: the half-maximal inhibitory concentration (IC50) (usually the midpoint of a concentration-inhibition curve) was no more than 2000 nM.

Take `O=c1ccc2c(ccn2Cc2cccc(Cl)c2)n1-c1ccsc1`: the IC50 was no more than 2000 nM.

As for `NC(=O)c1cc2c(ccc(=O)n2-c2ccccc2)n1Cc1cccc(Cl)c1`, the IC50 is no more than 2000 nM.

`CCOC(=O)c1cc2c(ccc(=O)n2-c2ccccc2)n1Cc1cccc(C)c1` gave a concentration for half-maximal inhibition (IC50) of no more than 2000 nM.

`Cc1cccc(Cn2c(C(=O)N3CCC[C@H]3CO)cc3c2ccc(=O)n3-c2ccccc2)c1` registered an IC50 of no more than 2000 nM.

`O=C(c1ccccc1)n1ccc2c1ccc(=O)n2-c1ccccc1` displayed a half-maximal inhibitory concentration (IC50) of no more than 2000 nM.

Consider `O=C(c1cn(Cc2ccccc2)c2ccc(=O)n(-c3ccccc3)c12)C(F)(F)F`, for which the concentration for half-maximal inhibition (IC50) was no more than 2000 nM.

The molecule `CNC(=O)c1cc2c(ccc(=O)n2-c2ccccc2)n1Cc1cccc(Cl)c1` registered a 50% inhibitory concentration (IC50) of no more than 2000 nM.

In turn, `CN(C)C(=O)c1cc2c(ccc(=O)n2-c2ccccc2)n1Cc1cccc(Cl)c1` displayed an IC50 of no more than 2000 nM.

`CCOC(=O)c1cc2c(ccc(=O)n2-c2ccc(C)cc2)n1Cc1cccc(Cl)c1` gave an IC50 of no more than 2000 nM.

In turn, `O=c1ccc2c(ccn2Cc2ccc(F)cc2)n1-c1ccccc1` had an IC50 of no more than 2000 nM.

Molecule `N#Cc1cccc(Cn2ccc3c2ccc(=O)n3-c2ccccc2)c1` registered a 50% inhibitory concentration (IC50) of no more than 2000 nM.

Consider `NNC(=O)c1cc2c(ccc(=O)n2-c2ccccc2)n1Cc1cccc(Cl)c1`, for which the IC50 was no more than 2000 nM.

As to `CCOC(=O)c1cc2c(ccc(=O)n2-c2ccsc2)n1Cc1cccc(Cl)c1`, the IC50 was no more than 2000 nM.

In the case of `O=c1ccc2c(ccn2Cc2ccc(F)cc2F)n1-c1ccccc1`, the IC50 was no more than 2000 nM.

Consider `CC(c1ccccc1)n1ccc2c1ccc(=O)n2-c1ccccc1` (stereo not drawn), for which the IC50 was no more than 2000 nM.

`Cc1cc(Cn2c(C(N)=O)cc3c2ccc(=O)n3-c2ccccc2)ccc1F` had a half-maximal inhibitory concentration (IC50) of no more than 2000 nM.

The molecule `O=c1ccc2c(ccn2Cc2cccnc2)n1-c1ccccc1` returned a half-maximal inhibitory concentration (IC50) of no more than 2000 nM.

`O=c1ccc2c(ccn2Cc2ccc(Cl)c(Cl)c2)n1-c1ccccc1` gave an IC50 of no more than 2000 nM.

In the case of `Cc1ccccc1Cn1ccc2c1ccc(=O)n2-c1ccccc1`, the IC50 is no more than 2000 nM.

Molecule `O=c1ccc2c(ccn2Cc2cccc(Cl)c2)n1-c1ccccc1` registered a half-inhibitory concentration (IC50) of no more than 2000 nM.

`O=c1ccc2c(ccn2Cc2ccccc2)n1-c1ccccc1` had an IC50 of no more than 2000 nM.

`Cc1ccc(-n2c(=O)ccc3c2cc(C(=O)NN)n3Cc2cccc(Cl)c2)cc1` displayed a concentration for half-maximal inhibition (IC50) of no more than 2000 nM.

With `O=c1ccc2c(cc(S(=O)(=O)N3CCCC3)n2Cc2cccc(Cl)c2)n1-c1ccccc1`, the IC50 was no more than 2000 nM.

The molecule `CCOC(=O)c1cc2c(ccc(=O)n2-c2ccc3[nH]ccc3c2)n1Cc1cccc(Cl)c1` registered a half-inhibitory concentration (IC50) of no more than 2000 nM.

Consider `O=c1ccc2c(ccn2Cc2ccc(Cl)s2)n1-c1ccccc1`, for which the IC50 is no more than 2000 nM.

`CON(C)C(=O)c1cc2c(ccc(=O)n2-c2ccccc2)n1Cc1ccc(F)c(Cl)c1` yielded a concentration for half-maximal inhibition (IC50) of no more than 2000 nM.

Molecule `Cc1cccc(Cn2c(C(N)=O)cc3c2ccc(=O)n3-c2ccccc2)c1` displayed an IC50 of no more than 2000 nM.

`O=c1ccc2c(ccn2Cc2cc(Cl)ccc2Cl)n1-c1ccccc1` yielded a half-inhibitory concentration (IC50) of no more than 2000 nM.

In turn, `CCOC(=O)c1cc2c(ccc(=O)n2-c2ccccc2)n1Cc1cccc(Cl)c1` displayed an IC50 of no more than 2000 nM.

Take `Cc1ccc(-n2c(=O)ccc3c2cc(C(N)=O)n3Cc2cccc(Cl)c2)cc1`: the IC50 is no more than 2000 nM.

As to `CCOC(=O)c1cc2c(ccc(=O)n2-c2ccccc2)n1Cc1ccc(F)c(C)c1`, the 50% inhibitory concentration (IC50) was no more than 2000 nM.

`O=c1ccc2c(ccn2Cc2ccc(F)c(Cl)c2)n1-c1ccccc1` yielded a half-maximal inhibitory concentration (IC50) of no more than 2000 nM.

Molecule `CCOC(=O)c1cc2c(ccc(=O)n2-c2ccccc2)n1Cc1ccc(F)c(Cl)c1` gave a 50% inhibitory concentration (IC50) of no more than 2000 nM.

Regarding `O=c1ccc2c(ccn2Cc2c(Cl)cccc2Cl)n1-c1ccccc1`, the half-maximal inhibitory concentration (IC50) is no more than 2000 nM.

`CON(C)C(=O)c1cc2c(ccc(=O)n2-c2ccccc2)n1Cc1cccc(C)c1` returned an IC50 of no more than 2000 nM.

Consider `CCOC(=O)c1cc2c(ccc(=O)n2-c2ccccc2[N+](=O)[O-])n1Cc1cccc(Cl)c1`, for which the half-inhibitory concentration (IC50) is no more than 2000 nM.

Turning to `O=c1ccc2c(ccn2CCc2ccccc2)n1-c1ccccc1`, the half-inhibitory concentration (IC50) is no more than 2000 nM.

For `CCOC(=O)c1cc2c(ccc(=O)n2-c2ccccc2)n1Cc1ccccc1`, the IC50 is no more than 2000 nM.

As for `O=c1ccc2c(ccn2Cc2ccc(F)c(F)c2)n1-c1ccccc1`, the IC50 is no more than 2000 nM.

For `N#Cc1ccccc1Cn1c(C(N)=O)cc2c1ccc(=O)n2-c1ccccc1`, the 50% inhibitory concentration (IC50) was no more than 2000 nM.

`Cc1cccc(Cn2ccc3c2ccc(=O)n3-c2ccccc2)c1` registered an IC50 of no more than 2000 nM.

Consider `NC(=O)c1cc2c(ccc(=O)n2-c2ccccc2)n1Cc1ccc(F)c(Cl)c1`, for which the IC50 was no more than 2000 nM.

Take `COc1cccc(Cn2ccc3c2ccc(=O)n3-c2ccccc2)c1`: the IC50 is no more than 2000 nM.

Regarding `Cc1ccc(Cn2ccc3c2ccc(=O)n3-c2ccccc2)cc1`, the IC50 is no more than 2000 nM.

Molecule `O=c1ccc2c(ccn2Cc2ccc(Cl)cc2)n1-c1ccccc1` gave an IC50 of no more than 2000 nM.

`N#Cc1cc2c(ccc(=O)n2-c2ccccc2)n1Cc1cccc(Cl)c1` registered an IC50 of no more than 2000 nM.

In turn, `O=C(c1cc2c(ccc(=O)n2-c2ccccc2)n1Cc1cccc(Cl)c1)N1CCCC1` had an IC50 of no more than 2000 nM.

`O=c1ccc2c(ccn2Cc2nc3ccccc3s2)n1-c1ccccc1` displayed a half-maximal inhibitory concentration (IC50) of no more than 2000 nM.

Regarding `NC(=O)c1cc2c(ccc(=O)n2-c2ccc3[nH]ccc3c2)n1Cc1cccc(Cl)c1`, the IC50 is no more than 2000 nM.

Molecule `O=c1ccc2c(ccn2Cc2ccncc2)n1-c1ccccc1` showed a half-maximal inhibitory concentration (IC50) of no more than 2000 nM.

In turn, `CON(C)C(=O)c1cc2c(ccc(=O)n2-c2ccccc2)n1Cc1cccc(Cl)c1` gave an IC50 of no more than 2000 nM.

In turn, `N#Cc1ccc(Cn2ccc3c2ccc(=O)n3-c2ccccc2)cc1` came in with an IC50 of no more than 2000 nM.
